Laboratory results reported in patent US20230398130A1, “METHODS AND COMPOSITIONS FOR DIFFERENTIATING STEM CELLS” (Massachusetts Institute of Technology, priority 2020, published 2023).

Assays:
[1] = test system: ISC-enriched organoids; assay: Primary screen, 384-well 2.5-D organoid differentiation (ENR+CD, 6 days): basal lysozyme secretion (LYZ.NS); assay type: cell-based, murine; conditions: primary screen; for Dose.FC.LYZ.NS (log 2 fold change): vs plate median
From the text: (§1) High-throughput screening.

[2] = test system: ISC-enriched organoids; assay: Primary screen, 384-well 2.5-D organoid differentiation (ENR+CD, 6 days): carbachol-induced lysozyme secretion (LYZ.S); assay type: cell-based, murine; conditions: primary screen, vs plate median
From the text: as §1

[3] = test system: ISC-enriched organoids; assay: Primary screen, 384-well 2.5-D organoid differentiation (ENR+CD, 6 days, Target Selective Inhibitor Library, vs whole-plate median): ATP (CellTiter-Glo 3D, CTG); conditions: primary screen; for Dose.FC.CTG (log 2 fold change): vs plate median

## Cn1cnc2c(F)c(Nc3ccc(Br)cc3Cl)c(C(=O)NOCCO)cc21 [Selumetinib (AZD6244)]
[1]; Dose 0.08 uM
  Z.LYZ.NS (standard z score): 0.181
  Dose.FC.LYZ.NS (log 2 fold change): 0.021
[1]; Dose 0.40 uM
  Z.LYZ.NS (standard z score): −0.188
  Dose.FC.LYZ.NS (log 2 fold change): −0.022
[1]; Dose 2.00 uM
  Z.LYZ.NS (standard z score): −0.847
  Dose.FC.LYZ.NS (log 2 fold change): −0.097
[1]; Dose 10.00 uM
  Z.LYZ.NS (standard z score): −1.220
  Dose.FC.LYZ.NS (log 2 fold change): −0.140
[2]; Dose 0.08 uM
  Dose.FC.LYZ.S (log 2 fold change): 0.004
[2]; Dose 0.40 uM
  Dose.FC.LYZ.S (log 2 fold change): −0.047
[2]; Dose 2.00 uM
  Dose.FC.LYZ.S (log 2 fold change): −0.175
[2]; Dose 10.00 uM
  Dose.FC.LYZ.S (log 2 fold change): −0.211
[3]; Dose 0.08 uM
  Z.CTG (standard z score): 0.393
  Dose.FC.CTG (log 2 fold change): 0.164
[3]; Dose 0.40 uM
  Z.CTG (standard z score): −0.395
  Dose.FC.CTG (log 2 fold change): −0.165
[3]; Dose 2.00 uM
  Z.CTG (standard z score): −0.613
  Dose.FC.CTG (log 2 fold change): −0.257
[3]; Dose 10.00 uM
  Z.CTG (standard z score): −2.035
  Dose.FC.CTG (log 2 fold change): −0.852

## CC(C)[C@H](O)C(=O)N[C@@H](C)C(=O)N[C@@H]1C(=O)N(C)CCc2ccccc21 [Semagacestat (LY450139)]
[1]; Dose 0.08 uM
  Z.LYZ.NS (standard z score): 0.151
  Dose.FC.LYZ.NS (log 2 fold change): 0.017
[1]; Dose 0.40 uM
  Z.LYZ.NS (standard z score): −0.181
  Dose.FC.LYZ.NS (log 2 fold change): −0.021
[1]; Dose 2.00 uM
  Z.LYZ.NS (standard z score): −0.704
  Dose.FC.LYZ.NS (log 2 fold change): −0.081
[1]; Dose 10.00 uM
  Z.LYZ.NS (standard z score): −0.942
  Dose.FC.LYZ.NS (log 2 fold change): −0.108
[2]; Dose 0.08 uM
  Dose.FC.LYZ.S (log 2 fold change): −0.014
[2]; Dose 0.40 uM
  Dose.FC.LYZ.S (log 2 fold change): −0.006
[2]; Dose 2.00 uM
  Dose.FC.LYZ.S (log 2 fold change): −0.081
[2]; Dose 10.00 uM
  Dose.FC.LYZ.S (log 2 fold change): −0.162
[3]; Dose 0.08 uM
  Z.CTG (standard z score): 0.338
  Dose.FC.CTG (log 2 fold change): 0.141
[3]; Dose 0.40 uM
  Z.CTG (standard z score): −0.494
  Dose.FC.CTG (log 2 fold change): −0.207
[3]; Dose 2.00 uM
  Z.CTG (standard z score): −0.306
  Dose.FC.CTG (log 2 fold change): −0.128
[3]; Dose 10.00 uM
  Z.CTG (standard z score): −2.045
  Dose.FC.CTG (log 2 fold change): −0.856

## Nc1ccc(C(=O)[O-])c(O)c1.[Na+] [Sodium 4-Aminosalicylate]
[1]; Dose 0.08 uM
  Z.LYZ.NS (standard z score): 0.695
  Dose.FC.LYZ.NS (log 2 fold change): 0.080
[1]; Dose 0.40 uM
  Z.LYZ.NS (standard z score): 0.354
  Dose.FC.LYZ.NS (log 2 fold change): 0.041
[1]; Dose 2.00 uM
  Z.LYZ.NS (standard z score): 1.354
  Dose.FC.LYZ.NS (log 2 fold change): 0.156
[1]; Dose 10.00 uM
  Z.LYZ.NS (standard z score): 0.796
  Dose.FC.LYZ.NS (log 2 fold change): 0.091
[2]; Dose 0.08 uM
  Dose.FC.LYZ.S (log 2 fold change): 0.162
[2]; Dose 0.40 uM
  Dose.FC.LYZ.S (log 2 fold change): 0.050
[2]; Dose 2.00 uM
  Dose.FC.LYZ.S (log 2 fold change): 0.099
[2]; Dose 10.00 uM
  Dose.FC.LYZ.S (log 2 fold change): 0.143
[3]; Dose 0.08 uM
  Z.CTG (standard z score): 0.283
  Dose.FC.CTG (log 2 fold change): 0.119
[3]; Dose 0.40 uM
  Z.CTG (standard z score): 0.488
  Dose.FC.CTG (log 2 fold change): 0.204
[3]; Dose 2.00 uM
  Z.CTG (standard z score): 0.092
  Dose.FC.CTG (log 2 fold change): 0.038
[3]; Dose 10.00 uM
  Z.CTG (standard z score): 0.590
  Dose.FC.CTG (log 2 fold change): 0.247

## O=[N+]([O-])c1ccc2c(c1)S(=O)(=O)C=C2 [Stattic]
[1]; Dose 0.08 uM
  Z.LYZ.NS (standard z score): 1.131
  Dose.FC.LYZ.NS (log 2 fold change): 0.130
[1]; Dose 0.40 uM
  Z.LYZ.NS (standard z score): 0.189
  Dose.FC.LYZ.NS (log 2 fold change): 0.022
[1]; Dose 2.00 uM
  Z.LYZ.NS (standard z score): 1.276
  Dose.FC.LYZ.NS (log 2 fold change): 0.147
[1]; Dose 10.00 uM
  Z.LYZ.NS (standard z score): −0.186
  Dose.FC.LYZ.NS (log 2 fold change): −0.021
[2]; Dose 0.08 uM
  Dose.FC.LYZ.S (log 2 fold change): 0.150
[2]; Dose 0.40 uM
  Dose.FC.LYZ.S (log 2 fold change): 0.033
[2]; Dose 2.00 uM
  Dose.FC.LYZ.S (log 2 fold change): 0.082
[2]; Dose 10.00 uM
  Dose.FC.LYZ.S (log 2 fold change): −0.019
[3]; Dose 0.08 uM
  Z.CTG (standard z score): −0.191
  Dose.FC.CTG (log 2 fold change): −0.080
[3]; Dose 0.40 uM
  Z.CTG (standard z score): −0.011
  Dose.FC.CTG (log 2 fold change): −0.005
[3]; Dose 2.00 uM
  Z.CTG (standard z score): 0.078
  Dose.FC.CTG (log 2 fold change): 0.033
[3]; Dose 10.00 uM
  Z.CTG (standard z score): −0.060
  Dose.FC.CTG (log 2 fold change): −0.025

## Cc1cn([C@H]2C=C[C@@H](CO)O2)c(=O)[nH]c1=O [Stavudine (d4T)]
[1]; Dose 0.08 uM
  Z.LYZ.NS (standard z score): 0.620
  Dose.FC.LYZ.NS (log 2 fold change): 0.071
[1]; Dose 0.40 uM
  Z.LYZ.NS (standard z score): 0.027
  Dose.FC.LYZ.NS (log 2 fold change): 0.003
[1]; Dose 2.00 uM
  Z.LYZ.NS (standard z score): 0.074
  Dose.FC.LYZ.NS (log 2 fold change): 0.009
[1]; Dose 10.00 uM
  Z.LYZ.NS (standard z score): −0.828
  Dose.FC.LYZ.NS (log 2 fold change): −0.095
[2]; Dose 0.08 uM
  Dose.FC.LYZ.S (log 2 fold change): 0.134
[2]; Dose 0.40 uM
  Dose.FC.LYZ.S (log 2 fold change): 0.001
[2]; Dose 2.00 uM
  Dose.FC.LYZ.S (log 2 fold change): −0.003
[2]; Dose 10.00 uM
  Dose.FC.LYZ.S (log 2 fold change): −0.120
[3]; Dose 0.08 uM
  Z.CTG (standard z score): 0.226
  Dose.FC.CTG (log 2 fold change): 0.095
[3]; Dose 0.40 uM
  Z.CTG (standard z score): 0.351
  Dose.FC.CTG (log 2 fold change): 0.147
[3]; Dose 2.00 uM
  Z.CTG (standard z score): 0.179
  Dose.FC.CTG (log 2 fold change): 0.075
[3]; Dose 10.00 uM
  Z.CTG (standard z score): −0.179
  Dose.FC.CTG (log 2 fold change): −0.075

## Cc1ccc(-n2nccn2)c(C(=O)N2CCN(c3nc4cc(Cl)ccc4o3)CC[C@H]2C)c1 [Suvorexant (MK-4305)]
[1]; Dose 0.08 uM
  Z.LYZ.NS (standard z score): 1.775
  Dose.FC.LYZ.NS (log 2 fold change): 0.204
[1]; Dose 0.40 uM
  Z.LYZ.NS (standard z score): 1.073
  Dose.FC.LYZ.NS (log 2 fold change): 0.123
[1]; Dose 2.00 uM
  Z.LYZ.NS (standard z score): 1.073
  Dose.FC.LYZ.NS (log 2 fold change): 0.123
[1]; Dose 10.00 uM
  Z.LYZ.NS (standard z score): 0.670
  Dose.FC.LYZ.NS (log 2 fold change): 0.077
[2]; Dose 0.08 uM
  Dose.FC.LYZ.S (log 2 fold change): 0.186
[2]; Dose 0.40 uM
  Dose.FC.LYZ.S (log 2 fold change): 0.142
[2]; Dose 2.00 uM
  Dose.FC.LYZ.S (log 2 fold change): 0.101
[2]; Dose 10.00 uM
  Dose.FC.LYZ.S (log 2 fold change): 0.131
[3]; Dose 0.08 uM
  Z.CTG (standard z score): 0.458
  Dose.FC.CTG (log 2 fold change): 0.192
[3]; Dose 0.40 uM
  Z.CTG (standard z score): 0.609
  Dose.FC.CTG (log 2 fold change): 0.255
[3]; Dose 2.00 uM
  Z.CTG (standard z score): 0.895
  Dose.FC.CTG (log 2 fold change): 0.375
[3]; Dose 10.00 uM
  Z.CTG (standard z score): 0.597
  Dose.FC.CTG (log 2 fold change): 0.250

## O=C(Nc1ccncc1)c1cc([N+](=O)[O-])ccc1Cl [T0070907]
[1]; Dose 0.08 uM
  Z.LYZ.NS (standard z score): 0.084
  Dose.FC.LYZ.NS (log 2 fold change): 0.010
[1]; Dose 0.40 uM
  Z.LYZ.NS (standard z score): −0.029
  Dose.FC.LYZ.NS (log 2 fold change): −0.003
[1]; Dose 2.00 uM
  Z.LYZ.NS (standard z score): 0.373
  Dose.FC.LYZ.NS (log 2 fold change): 0.043
[1]; Dose 10.00 uM
  Z.LYZ.NS (standard z score): −1.897
  Dose.FC.LYZ.NS (log 2 fold change): −0.218
[2]; Dose 0.08 uM
  Dose.FC.LYZ.S (log 2 fold change): −0.005
[2]; Dose 0.40 uM
  Dose.FC.LYZ.S (log 2 fold change): −0.001
[2]; Dose 2.00 uM
  Dose.FC.LYZ.S (log 2 fold change): 0.081
[2]; Dose 10.00 uM
  Dose.FC.LYZ.S (log 2 fold change): −0.312
[3]; Dose 0.08 uM
  Z.CTG (standard z score): 0.267
  Dose.FC.CTG (log 2 fold change): 0.112
[3]; Dose 0.40 uM
  Z.CTG (standard z score): 0.062
  Dose.FC.CTG (log 2 fold change): 0.026
[3]; Dose 2.00 uM
  Z.CTG (standard z score): 0.119
  Dose.FC.CTG (log 2 fold change): 0.050
[3]; Dose 10.00 uM
  Z.CTG (standard z score): −1.806
  Dose.FC.CTG (log 2 fold change): −0.756

## CNC(=O)c1ccccc1Nc1nc(Nc2ccc(N3CCOCC3)cc2OC)ncc1Cl [TAE226 (NVP-TAE226)]
[1]; Dose 0.08 uM
  Z.LYZ.NS (standard z score): −2.226
  Dose.FC.LYZ.NS (log 2 fold change): −0.256
[1]; Dose 0.40 uM
  Z.LYZ.NS (standard z score): −2.650
  Dose.FC.LYZ.NS (log 2 fold change): −0.304
[1]; Dose 2.00 uM
  Z.LYZ.NS (standard z score): −2.813
  Dose.FC.LYZ.NS (log 2 fold change): −0.323
[1]; Dose 10.00 uM
  Z.LYZ.NS (standard z score): −2.545
  Dose.FC.LYZ.NS (log 2 fold change): −0.292
[2]; Dose 0.08 uM
  Dose.FC.LYZ.S (log 2 fold change): −0.333
[2]; Dose 0.40 uM
  Dose.FC.LYZ.S (log 2 fold change): −0.376
[2]; Dose 2.00 uM
  Dose.FC.LYZ.S (log 2 fold change): −0.400
[2]; Dose 10.00 uM
  Dose.FC.LYZ.S (log 2 fold change): −0.426
[3]; Dose 0.08 uM
  Z.CTG (standard z score): −1.127
  Dose.FC.CTG (log 2 fold change): −0.472
[3]; Dose 0.40 uM
  Z.CTG (standard z score): −2.689
  Dose.FC.CTG (log 2 fold change): −1.126
[3]; Dose 2.00 uM
  Z.CTG (standard z score): −3.068
  Dose.FC.CTG (log 2 fold change): −1.284
[3]; Dose 10.00 uM
  Z.CTG (standard z score): −2.363
  Dose.FC.CTG (log 2 fold change): −0.989
